Data as given in patent US11992011B2, “Compounds for controlling plant pathogens” (VIB VZW, priority 2017, dated 2024).

Columns and labels:
[1] = tested on: Arabidopsis thaliana seedlings; details: continuous exposure; Steenackers et al. 2016; cited from earlier work
[2] = tested on: Meloidogyne incognita; assay: M. incognita infection in NahG-expressing tomato (Example 17); format: in vivo
Description: Infection experiments with M. incognita were performed in the same manner as those with M. graminicola, except that plants were harvested 31 days after inoculation instead of 14 days. At this point, the plants were phenotyped by measuring the root length with a ruler and in some experiments by measuring leaf area using the EasyLeafArea software (Easlon and Bloom, 2014) and by determining shoot dry mass after 72 hours of drying in an oven at 70° C. Galls were stained and counted as described above.
To evaluate this further, a tomato line deficient in salicylic acid biosynthesis and signaling respectively was treated with PA. […] If this line still responds to PA, it further strengthens the notion that salicylic acid accumulation is not the cause of C4H inhibitor-induced nematode resistance, for which evidence in rice was already provided in Example 16.

[3] = tested on: Heterodera schachtii; assay: Heterodera schachtii infection in sugar beet (Example 9); format: in vivo; details: 10 μM PA
Description: Sugar beet seeds (cultivar Jolgeh) were germinated for five days at 25° C. on sterile potting soil saturated with distilled water. Seedlings were transferred to SAP tubes, which were placed in a growth chamber at 24° C. (16h per day of fluorescent lighting). The first two days after transfer, the tubes were covered with a polyethylene film (Saran Film, Dow Chemicals, Midland, USA) to prevent excessive evaporation. Seedlings were watered three times per week with 8 ml of Hoagland solution.
Cysts were collected from sugar beets (cv. Jolgeh) kept in a growing chamber at 21° C. through a flotation protocol. Plant roots and their surrounding soil were placed in a water bath at room temperature and gently agitated, followed by decanting and sieving to allow collection of cysts. Cysts were are-dried for two days and stored until use.
Hatching of cysts was induced by exposing them to a zinc chloride solution (3 mM in distilled water) at 25° C. for three days. Five 100 μl samples were taken from this suspension. The number of J2 juveniles in each sample was counted and the results were averaged. Sugar beet plants were inoculated fourteen days after transfer to SAP with the required volume of suspension to inoculate each plant with an average of 250 J2 nematodes.
Infection experiments with H. schachtii were performed by inoculating host plants 14 days after transfer to SAP by introducing 250 J2 juveniles to their root system using a micro pipette. Plants were harvested 31 days after inoculation. At this point, the plants were phenotyped by measuring the root and shoot length with a ruler. Cysts were collected through a sucrose flotation protocol and then counted and microscopically assessed for maturity.
To test whether the compounds of the invention are effective against other nematodes and in other plant species, PA was tested on the interaction between the dicot crop sugar beet (Beta vulgaris) and the cyst nematode Heterodera schachtii. At this point, it was not known whether dicots would tolerate PA as well as monocots and so a much lower dose (10 μM) was used instead.

[4] = tested on: Botrytis cinerea (isolate R16); assay: Botrytis cinerea infection of detached tomato leaves (Example 13); format: in vivo; design: dose or concentration left out as unconfirmed; details: spray containing PA, four days after inoculation, vs control
Description: Tomato plants (cv. Moneymaker) were grown for four weeks in potting soil as described in the plant material section. Six hours before inoculation, the third leaf of each tomato plant was detached. The petioles were wrapped in wet tissue paper and the leaves were placed on a petri dish. […] Finally, the tray was covered with a plastic autoclave bag to keep humidity at 100%.
Botrytis cinerea (line R16) spores were obtained as described in the fungal culture section, centrifuged for five minutes at 3000 rpm and resuspended to a concentration of 1.0×10^6 spores per ml with a solution of 0.01 M glucose and 0.0067 M KH2PO4. The spore suspension was left at room temperature for one hour to trigger germination. […]
Six drops of spore suspension of 15 μl each were spotted on each detached tomato leaf, after which the tray was covered again. The tray was placed at room temperature away from direct sunlight and left for four days. At this point, chlorophyll fluorescence measurements were taken to assess the success of infection. Two parameters were assessed: whether the B. cinerea lesion had spread beyond the droplet area (successful invasion) and the total surface area of successfully established lesions (post-invasion growth).

[5] = tested on: tobacco cell cultures (Nicotinium tabacum BY2); details: Schoch et al., 2002; cited from earlier work
[6] = tested on: J2 juveniles of Heterodera schachtii; assay: In vitro nematode toxicity assay, H. schachtii J2 (Example 11); details: PA 100 μM, Vertimec 0.02 v/v % abamectin, control 83.1±7.6
Description: J2 juveniles of Meloidogyne graminicola and Heterodera schachtii were isolated from Echinocloa cruss-galli roots and sugar beet roots respectively. Per treatment and species combination, 300 nematodes were isolated and divided over six wells that contained 1.5 ml of either sterilized tap water, a 100 μM C4H inhibitor solution or a 0.02 v/v % solution of the nematicide abamectin (Vertimec®, Syngenta AG). The nematodes were incubated in the dark on a slow-moving rotary shaker (50 rpm) and the number of living nematodes was counted regularly using a binocular microscope.
To rule out definitively that the compounds of the invention operate through direct toxicity to nematodes, an in vitro toxicity assay on J2 juveniles of the nematodes Meloidogyne graminicola and Heterodera schachtii was performed.
First, survival upon exposure to the C4H inhibitor piperonylic acid (PA) was compared to a negative control (tap water) and a positive control, the commercial nematicide Vertimec (0.02% Abamectin). A detailed survival curve is shown in FIG. 12a (M. graminicola) and FIG. 12b (H. schachtii).

[7] = infected sugar beet, mean ± SD, n = 8

Compound	IC50 [1]	change of number of galls, PA-treated NahG plants vs untreated wild type plants ([2]; NahG-expressing (SA-deficient) tomato)	difference in number of galls, PA-treated NahG plants vs PA-treated wild type plants ([2]; NahG-expressing tomato, not significant)	Number of mature cysts [3, 7]	Proportion of mature cysts [3, 7]	Total number of cysts [3, 7]	reduction of the number of Heterodera schachtii nematodes ([3]; sugar beet, statistically insignificant)	change of mean size of successfully established/spreading lesions [4]	change of number of inoculation spots in which fungal lesions developed [4]	accumulation of salicylic acid [5]	survival after 24 hours of exposure [6]
O=C(O)/C=C/c1ccc2c(c1)OCO2 [MDCA, 3,4-methylenedioxycinnamic acid]	5.07 µM	–	–	–	–	–	–	–	–	–	–
O=C(O)c1ccc2c(c1)OCO2 [PA, Piperonylic acid]	–	−36%	+9%	7.5 ± 4.4	0.48 ± 0.25	15.3 ± 0.7	20%	−62%	−50%	induces the accumulation of the defense hormone salicylic acid	92.8±2.5%
